Results from patent US11850306B2, “Method for drying hydrogel comprising nanofibrillar cellulose and a dried hydrogel comprising nanofibrillar cellulose” (UPM-KYMMENE CORPORATION, priority 2016, dated 2023).
Values joined by “and” are separate entries in the source; they are usually repeats but may differ in a detail not shown here. Equal entries are not always repeated. Where two headings read alike, the source gives them in different places.

How the values were obtained:
[1] = In vitro release studies: diffusion coefficients of model compounds from NFC hydrogels; format: physicochemical; conditions: for Diffusion coefficient in NFC-hydrogels: pH 7.4, 37° C.
Method: (§1) In vitro drug release studies were performed with modified intrinsic dissolution disc dies filled with 1.07 g of formulations with a constant flat surface area of 1.33 cm^2. Discs were placed in 150 ml amber glass vessels on top of a holder. The vessels were filled to a final volume of 70 ml with pH 7.4 phosphate buffered saline (1×DPBS) and kept at 37° C. under constant magnetic stirring (400 rpm) on top of a multi-position magnetic stirrer IKA RT10 (IKA-Werke GmbH & Co KG, Germany). […] All experiments were done in triplicate.
The flow rate was 0.5 ml/min and the injection volume 5 μl. […] During the gradient run the mobile phase consisted of a mixture of acetonitrile and 15 mM phosphate buffer pH 2 in 25:75 ratio at 0-3 min. After 3 min the mobile phase composition was changed to 75:25 ratio. […] For nadolol, the used column was HSS-T3 1.8 μm (2.1×50 mm) (Waters, USA) at 30° C. The flow rate was 0.5 ml/min and the injection volume 5 μl. […] During the gradient run the mobile phase consisted of a mixture of acetonitrile and 15 mM phosphate buffer pH 2 in 10:90 ratio at 0-3 min. After 3 min the mobile phase composition was changed to 50:50 ratio.
200 μl of samples were pipetted into wells of 96-well OptiPlate plates (PerkinElmer, Finland). Excitation wavelength 490 nm, emission wavelength 520 nm and 12 nm bandwidth were used.
For metronidazole, absorbance was measured in 1 cm cell at 320 nm with 12 nm bandwidth against blank.
Sample and reagent were mixed thoroughly with a multi-channel pipet and incubated for 20 minutes at room temperature before absorbance measurement.
Mathematical equations were used for the modelling of diffusion controlled drug release that take into consideration structure of the device, the ratio of initial drug concentration to drug solubility and the device geometry. The diffusion coefficients were calculated by Higuchi equation (1) for small molecules with a presumption that these systems could be described as monolithic dispersions (Equations 1 and 2 below). For large molecules (1 kDa) equations we used to solve Fick's second law of diffusion and diffusion coefficients (2) with a presumption that these systems could be described as monolithic solutions (FIG. 2).
as §1, with “cm2.” for “cm^2.”

[2] = cited from earlier work; for Solubility in aqueous media (intrinsic solubility): 25° C.
[3] = cited from earlier work
[4] = nitrogen; cited from earlier work
[5] = 3% NFC/exp (PEG6000 and trehalose), before freeze drying
[6] = 6.5% NFC/exp (PEG6000 and trehalose), before freeze drying
[7] = FD 3% NFC/exp, freeze dried and redispersed
[8] = FD 6.5% NFC/exp, freeze dried and redispersed

## CC(C(=O)O)c1cccc(C(=O)c2ccccc2)c1 (stereo not drawn) [Ketoprofen]
[1]; 3% NFC, no excipients
  Diffusion coefficients for model compounds in different NFC hydrogels: 152.62 10^−8 cm^2/s
[1]; [5]
  Diffusion coefficients for model compounds in different NFC hydrogels: 147.15 10^−8 cm^2/s
[1]; 6.5% NFC, no excipients
  Diffusion coefficients for model compounds in different NFC hydrogels: 141.86 10^−8 cm^2/s
[1]; [6]
  Diffusion coefficients for model compounds in different NFC hydrogels: 141.20 10^−8 cm^2/s
[1]; [7]
  Diffusion coefficients for model compounds in different NFC hydrogels: 129.97 10^−8 cm^2/s
[1]; [8]
  Diffusion coefficients for model compounds in different NFC hydrogels: 124.44 10^−8 cm^2/s
[1]; NFC hydrogel 11804-3 (3.2%)
  Diffusion coefficient in NFC-hydrogels: 152.62 10^−8 cm^2/s
[1]; NFC hydrogel 11814-1 (5.7%)
  Diffusion coefficient in NFC-hydrogels: 131.41 10^−8 cm^2/s
[1]; NFC hydrogel 11814-3 (5.7%)
  Diffusion coefficient in NFC-hydrogels: 148.23 10^−8 cm^2/s
[1]; NFC hydrogel 11815-3 (6.8%)
  Diffusion coefficient in NFC-hydrogels: 141.86 10^−8 cm^2/s

## Cc1ncc([N+](=O)[O-])n1CCO [Metronidazole]
[1]; 3% NFC, no excipients
  Diffusion coefficients for model compounds in different NFC hydrogels: 716.99 10^−8 cm^2/s
[1]; [5]
  Diffusion coefficients for model compounds in different NFC hydrogels: 657.41 10^−8 cm^2/s
[1]; 6.5% NFC, no excipients
  Diffusion coefficients for model compounds in different NFC hydrogels: 617.51 10^−8 cm^2/s
[1]; [6]
  Diffusion coefficients for model compounds in different NFC hydrogels: 617.16 10^−8 cm^2/s
[1]; [7]
  Diffusion coefficients for model compounds in different NFC hydrogels: 699.10 10^−8 cm^2/s
[1]; [8]
  Diffusion coefficients for model compounds in different NFC hydrogels: 660.18 10^−8 cm^2/s
[1]; NFC hydrogel 11804-3 (3.2%)
  Diffusion coefficient in NFC-hydrogels: 716.99 10^−8 cm^2/s
[1]; NFC hydrogel 11814-1 (5.7%)
  Diffusion coefficient in NFC-hydrogels: 609.51 10^−8 cm^2/s
[1]; NFC hydrogel 11814-3 (5.7%)
  Diffusion coefficient in NFC-hydrogels: 551.09 10^−8 cm^2/s
[1]; NFC hydrogel 11815-3 (6.8%)
  Diffusion coefficient in NFC-hydrogels: 617.51 10^−8 cm^2/s
[2]
  Solubility in aqueous media (intrinsic solubility): 10.5 (25° C.), mg/ml and 10.5 mg/ml
[2]; pH 7
  Solubility in aqueous media: 10.5 (pH 7) mg/ml
[3]; pH 7.0
  Charge at pH 7.0: ø
[3]; pH 7.4
  Charge of compounds at pH 7.4: Metronidazole (ø)
[4]
  Onset degradation temp Td, N2: 160 °C

## CC(C)(C)NCC(O)COc1cccc2c1CC(O)C(O)C2 (stereo not drawn) [Nadolol]
[1]; 3% NFC, no excipients
  Diffusion coefficients for model compounds in different NFC hydrogels: 286.24 10^−8 cm^2/s
[1]; [5]
  Diffusion coefficients for model compounds in different NFC hydrogels: 292.92 10^−8 cm^2/s
[1]; 6.5% NFC, no excipients
  Diffusion coefficients for model compounds in different NFC hydrogels: 230.62 10^−8 cm^2/s
[1]; [6]
  Diffusion coefficients for model compounds in different NFC hydrogels: 245.04 10^−8 cm^2/s
[1]; [7]
  Diffusion coefficients for model compounds in different NFC hydrogels: 296.36 10^−8 cm^2/s
[1]; [8]
  Diffusion coefficients for model compounds in different NFC hydrogels: 267.21 10^−8 cm^2/s
[1]; NFC hydrogel 11804-3 (3.2%)
  Diffusion coefficient in NFC-hydrogels: 286.24 10^−8 cm^2/s
[1]; NFC hydrogel 11814-1 (5.7%)
  Diffusion coefficient in NFC-hydrogels: 273.21 10^−8 cm^2/s
[1]; NFC hydrogel 11814-3 (5.7%)
  Diffusion coefficient in NFC-hydrogels: 287.50 10^−8 cm^2/s
[1]; NFC hydrogel 11815-3 (6.8%)
  Diffusion coefficient in NFC-hydrogels: 230.62 10^−8 cm^2/s
[2]
  Solubility in aqueous media (intrinsic solubility): 8.3 (25° C.), mg/ml
[2]; pH 7
  Solubility in aqueous media: 8.3 (pH 7) mg/ml
[3]
  pKa/pI: 9.28
[4]
  Onset degradation temp Td, N2: 196.2 °C

## OC[C@H]1O[C@H](O[C@H]2O[C@H](CO)[C@@H](O)[C@H](O)[C@H]2O)[C@H](O)[C@@H](O)[C@@H]1O [Trehalose, D-(+)-trehalose dihydrate]
[4]
  Onset degradation temp Td, N2: 230 °C

## Lysozyme: Lysozyme from hen egg white, 14.7 kDa model compound
[1]; 3% NFC, no excipients
  Diffusion coefficients for model compounds in different NFC hydrogels: 3.53 10^−8 cm^2/s
[1]; 6.5% NFC, no excipients
  Diffusion coefficients for model compounds in different NFC hydrogels: 1.75 10^−8 cm^2/s
[1]; NFC hydrogel 11804-3 (3.2%)
  Diffusion coefficient in NFC-hydrogels: 3.53 10^−8 cm^2/s
[1]; NFC hydrogel 11814-1 (5.7%)
  Diffusion coefficient in NFC-hydrogels: 1.79 10^−8 cm^2/s
[1]; NFC hydrogel 11814-3 (5.7%)
  Diffusion coefficient in NFC-hydrogels: 2.57 10^−8 cm^2/s
[1]; NFC hydrogel 11815-3 (6.8%)
  Diffusion coefficient in NFC-hydrogels: 1.75 10^−8 cm^2/s
[2]; condition not given
  Solubility in aqueous media: >10 mg/mL

## Polyethylene glycol 6000 [PEG 6000]
[4]
  Onset degradation temp Td, N2: 257 °C
